Structures can show the parent of a compound that is named as a salt.

In the first experiment the target is human neutrophil elastase (HNE) (Homo sapiens (Human), UniProt P08246). Briefly: In vitro HNE inhibition assay (fluorogenic peptide substrate MeOSuc-Ala-Ala-Pro-Val-AMC). The note with it: HNE concentration of 80 pM; 37° C., 2 hours. Format: biochemical. From the text: B-1. In Vitro HNE Inhibition Assay
Chain of human neutrophil elastase (HNE) (P08246 30-267): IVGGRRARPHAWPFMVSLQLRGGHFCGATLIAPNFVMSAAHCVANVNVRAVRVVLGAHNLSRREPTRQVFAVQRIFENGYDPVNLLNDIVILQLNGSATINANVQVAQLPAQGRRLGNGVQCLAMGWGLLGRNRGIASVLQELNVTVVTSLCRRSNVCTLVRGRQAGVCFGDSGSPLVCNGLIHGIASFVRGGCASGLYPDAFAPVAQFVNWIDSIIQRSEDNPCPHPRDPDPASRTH
The potency of the compounds of the invention is ascertained in an in vitro inhibition assay. The HNE-mediated amidolytic cleavage of a suitable peptide substrate leads in this connection to an increase in the fluorescent light. The signal intensity of the fluorescent light is directly proportional to the enzyme activity. The effective concentration of a test compound at which half the enzyme is inhibited (50% signal intensity of the fluorescent light) is indicated as IC50.
Enzyme (80 pM HNE; from Serva, Heidelberg) and substrate (20 μM MeOSuc-Ala-Ala-Pro-Val-AMC; from Bachem, Weil am Rhein) are incubated in an assay volume of in total 50 μl of assay buffer (0.1 M HEPES pH 7.4, 0.5 M NaCl, 0.1% w/v BSA, 1% v/v DMSO) in a 384-well microtiter plate in the presence and absence of the test substance at 37° C. for 2 hours. The intensity of the fluorescent light from the assay mixtures is measured (Ex. 380 nm, Em. 460 nm). The IC50 values are determined by plotting the intensity of the fluorescent light against the active substance concentration.
On to `CC1=C(C#N)[C@@H](c2ccc(C#N)cc2)n2nc(NC(=O)NCCO)nc2N1c1cccc(C(F)(F)F)c1` [Example 53, 1-{(7R)-6-Cyano-7-(4-cyanophenyl)-5-methyl-4-[3-(trifluoromethyl)phenyl]-4,7-dihydro[1,2,4]triazolo[1,5-a]pyrimidin-2-yl}-3-(2-hydroxyethyl)urea], for which the half-maximal inhibitory concentration (IC50) (commonly the point on the concentration scale where inhibition reaches its midpoint) is < 0.3 nM.
Turning to `CC1=C(C#N)[C@@H](c2ccc(C#N)cc2S(C)(=O)=O)n2nc(NC(=O)C3CC3)nc2N1c1cccc(C(F)(F)F)c1` [Example 35, N-{(7S)-6-Cyano-7-[4-cyano-2-(methylsulfonyl)phenyl]-5-methyl-4-[3-(trifluoromethyl)phenyl]-4,7-dihydro[1,2,4]triazolo[1,5-a]pyrimidin-2-yl}cyclopropanecarboxamide], the IC50 is < 0.3 nM.
With `CCOC(=O)Nc1nc2n(n1)C(c1ccc(C#N)cc1)C(C(=O)OCC)=C(C)N2c1cccc(C(F)(F)F)c1` (centres unmarked) [Example 50, Ethyl 7-(4-cyanophenyl)-2-[(ethoxycarbonyl)amino]-5-methyl-4-[3-(trifluoromethyl)phenyl]-4,7-dihydro[1,2,4]triazolo[1,5-a]pyrimidine-6-carboxylate], the IC50 is < 0.3 nM.
As for `CCNc1nc2n(n1)[C@H](c1ccc(C#N)cc1)C(C#N)=C(C)N2c1cccc(C(F)(F)F)c1` [Example 56, (7R)-7-(4-Cyanophenyl)-2-(ethylamino)-5-methyl-4-[3-(trifluoromethyl)phenyl]-4,7-dihydro-[1,2,4]triazolo[1,5-a]pyrimidine-6-carbonitrile], the IC50 is < 0.3 nM.
The same measure, in the same setting: to `CCOC(=O)C1=C(C)N(c2cccc(C(F)(F)F)c2)c2nc3cncnc3n2C1c1ccc(C#N)cc1` (racemic) [Example 78, Ethyl(rac)-9-(4-cyanophenyl)-7-methyl-6-[3-(trifluoromethyl)phenyl]-6,9-dihydropyrimido[1,2-e]-purin-8-carboxylate] belongs 3 nM.
On the same count and under the same terms, in the case of `CC1=C(C#N)C(c2ccc(C#N)cc2S(C)(=O)=O)n2nc(N3C(=O)c4ccccc4C3=O)nc2N1c1cccc(C(F)(F)F)c1` (racemic) [Example 5, (rac)-7-[4-Cyano-2-(methylsulfonyl)phenyl]-2-(1,3-dioxo-1,3-dihydro-2H-isoindol-2-yl)-5-methyl-4-[3-(trifluoromethyl)phenyl]-4,7-dihydro[1,2,4]triazolo[1,5-a]pyrimidine-6-carbonitrile] it was < 0.3 nM; in that of `CCOC(=O)C1=C(C)N(c2cccc(C(F)(F)F)c2)c2nccn2[C@@H]1c1ccc(C#N)cc1` [Example 90, Ethyl (5R)-5-(4-cyanophenyl)-7-methyl-8-[3-(trifluoromethyl)phenyl]-5,8-dihydroimidazo[1,2-a]-pyrimidine-6-carboxylate], 6.5 nM.
Still for that read-out and setting: in the case of `CC1=C(C#N)[C@@H](c2ccc(C#N)cc2S(C)(=O)=O)n2nc(N)nc2N1c1cccc(C(F)(F)F)c1` [Example 9, (7S)-2-Amino-7-[4-cyano-2-(methylsulfonyl)phenyl]-5-methyl-4-[3-(trifluoromethyl)phenyl]-4,7-dihydro[1,2,4]triazolo[1,5-a]pyrimidine-6-carbonitrile hydrochloride] it was < 0.3 nM.
As to `CC1=C(C#N)[C@@H](c2ccc(C#N)cc2)n2nc(NC(=O)C3CCCCC3)nc2N1c1cccc(C(F)(F)F)c1` [Example 23, N-{(7R)-6-Cyano-7-(4-cyanophenyl)-5-methyl-4-[3-(trifluoromethyl)phenyl]-4,7-dihydro[1,2,4]triazolo[1,5-a]pyrimidin-2-yl}cyclohexanecarboxamide], the 50% inhibitory concentration (IC50) was < 0.3 nM.
`CC1=C(C#N)C(c2ccc(C#N)cc2)n2nc(C(C)C)nc2N1c1cccc(C(F)(F)F)c1` (racemic) [Example 67, (rac)-7-(4-Cyanophenyl)-5-methyl-2-(1-methylethyl)-4-[3-(trifluoromethyl)phenyl]-4,7-dihydro-[1,2,4]triazolo[1,5-a]pyrimidine-6-carbonitrile]: the half-maximal inhibitory concentration (IC50) was determined as 85 nM.

In a further experiment the target is pancreas elastase (Sus scrofa (Pig), UniProt P00772).
Chain of pancreas elastase (P00772 27-266): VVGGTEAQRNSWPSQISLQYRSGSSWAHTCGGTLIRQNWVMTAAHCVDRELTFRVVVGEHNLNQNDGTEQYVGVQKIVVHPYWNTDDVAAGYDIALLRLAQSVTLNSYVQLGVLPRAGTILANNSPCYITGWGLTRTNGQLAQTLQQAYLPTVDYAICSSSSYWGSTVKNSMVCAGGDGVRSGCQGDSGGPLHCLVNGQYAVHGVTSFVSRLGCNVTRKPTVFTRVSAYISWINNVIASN
Test: not given
The note with it: cited from earlier work.
For `CC(C)(C)C(=O)Oc1ccc(S(=O)(=O)Nc2ccccc2C(=O)NCC(=O)O)cc1` [sivelestat], the concentration for half-maximal inhibition (IC50) was 5600 nM.

The values are drawn from patent US8569314B2, “Triazolo and tetrazolo pyrimidine derivatives as HNE inhibitors for treating COPD” (Bayer Intellectual Property GmbH, priority 2009, dated 2013).
